Laboratory results: the supplement of paper PMC3937590

Key:
Test in all cases: -log10 GI50 (growth inhibition 50%) (-log10(M)); higher = more potent growth inhibition
HCC3153 = test system: HCC3153
How it was run: (§1)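 Breast cancer cell lines were treated with each compound for 72 hours at nine doses in 1:5 serial dilution, in triplicate, and luminescence was read against a time-zero plate. A Gompertz curve was fitted to the dose-response data by nonlinear least squares to obtain GI50, the molar concentration giving the set level of growth inhibition, which is reported as its negative logarithm. The logarithm is base 10, and values equal to the top dose carry a < qualifier.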

MCF10F = test system: MCF10F
How it was run: as §1

HCC1395 = test system: HCC1395
How it was run: as §1

21MT1 = test system: 21MT1
How it was run: as §1

SUM225CWN = test system: SUM225CWN
How it was run: as §1

MDAMB134VI = test system: MDAMB134VI
How it was run: as §1

HCC1569 = test system: HCC1569
How it was run: as §1

SUM1315MO2 = test system: SUM1315MO2
How it was run: as §1

21NT = test system: 21NT
How it was run: as §1

MCF10A = test system: MCF10A
How it was run: as §1

SUM149PT = test system: SUM149PT
How it was run: as §1

HCC202 = test system: HCC202
How it was run: as §1

HBL100 = test system: HBL100
How it was run: as §1

SUM102PT = test system: SUM102PT
How it was run: as §1

MDAMB468 = test system: MDAMB468
How it was run: as §1

MDAMB436 = test system: MDAMB436
How it was run: as §1

UACC893 = test system: UACC893
How it was run: as §1

S1 = test system: S1
How it was run: as §1

T4 = test system: T4
How it was run: as §1

ZR7530 = test system: ZR7530
How it was run: as §1

-log10 GI50 (HCC3153) | -log10 GI50 (HCC1395) | -log10 GI50 (MDAMB134VI) | -log10 GI50 (HCC1569) | -log10 GI50 (HCC202) | -log10 GI50 (MDAMB468) | -log10 GI50 (MDAMB436) | Structure (SMILES) | -log10 GI50 (MCF10F) | -log10 GI50 (21MT1) | -log10 GI50 (SUM225CWN) | -log10 GI50 (SUM1315MO2) | -log10 GI50 (21NT) | -log10 GI50 (MCF10A) | -log10 GI50 (SUM149PT) | -log10 GI50 (HBL100) | -log10 GI50 (SUM102PT) | -log10 GI50 (UACC893) | -log10 GI50 (S1) | -log10 GI50 (T4) | -log10 GI50 (ZR7530)
4.87 | 7.02 | 6.8 | 6.78 | – | – | – | COc1ccc(-c2cc3c(C)nc(N)nc3n([C@H]3CC[C@H](OCCO)CC3)c2=O)cn1 | 6.8 | 6.54 | 6.79 | 7.06 | 5.84 | 6.69 | 7.08 | – | – | – | – | – | –
< 4.48 | 5.17 | 4.72 | 5.19 | 6.45 | 4.72 | < 4.48 | COc1cc2ncnc(Nc3ccc(F)c(Cl)c3)c2cc1OCCCN1CCOCC1 [Gefitinib] | 6.16 | – | – | 5.83 | – | 6.17 | 5.62 | 4.94 | 5.73 | 5.94 | 6.57 | – | –
4.97 | 5.27 | 5.59 | 6.17 | 6.03 | 7.89 | 7.19 | CCn1cc(-c2ccnc3[nH]c(-c4cccc(CN(C)C)c4)cc23)c(-c2ccc(NC(=O)N(C)C)cc2)n1 | 5.69 | – | – | 5.9 | – | 6.12 | 5.55 | 7.15 | 5.52 | 5.06 | 6.36 | 6.63 | –
6.48 | 6.6 | 5.95 | 5.59 | 6.61 | 6.13 | 6.29 | COc1cccc2c1C(=O)c1c(O)c3c(c(O)c1C2=O)C[C@@](O)(C(=O)CO)C[C@@H]3O[C@H]1C[C@H](N)[C@H](O)[C@H](C)O1 [Doxorubicin] | 6.64 | – | – | 6.73 | – | 6.79 | – | 7.37 | 6.61 | 6.14 | 6.09 | 6.9 | 6.96
< 4.78 | 6.71 | 8.33 | < 4.78 | 6.28 | 4.84 | 4.81 | CC(=O)Nc1cccc(-n2c(=O)n(C3CC3)c(=O)c3c(Nc4ccc(I)cc4F)n(C)c(=O)c(C)c32)c1 | 8.06 | – | – | 7.19 | – | 8.23 | 7.64 | < 4.78 | – | 5.77 | 8.31 | 9 | < 4.78
4.37 | < 4.18 | 4.33 | 4.27 | – | – | – | CCC[C@H](N[C@H]1CCc2cc(F)cc(F)c2C1)C(=O)Nc1cn(C(C)(C)CNCC(C)(C)C)cn1 | < 4.18 | 4.38 | 4.84 | 4.65 | < 4.18 | < 4.18 | 6.88 | – | – | – | – | – | –
5.13 | < 4.18 | 5.88 | < 4.18 | 4.84 | – | – | CCN(CC)C(=S)SSC(=S)N(CC)CC [Disulfiram] | < 4.18 | < 4.18 | – | 6.36 | 4.72 | 4.93 | – | – | – | – | – | – | 7.05
5.24 | 4.09 | 2.97 | 3.71 | 4.75 | – | 3.43 | CCNCCCNC/C=C\CNCCCNCC | 3.76 | – | – | 2.95 | – | 4.2 | 4.55 | 2.94 | 5.98 | 3.63 | 5.46 | 4.76 | < 2.3
5.38 | 5.96 | 5.3 | 6.07 | – | – | – | CC(=O)NCC(=O)N1[C@@H]2CC[C@H]1c1ccc(Nc3ncc(C(F)(F)F)c(NC4CCC4)n3)cc12 | 6.28 | 5.78 | 5.05 | 6.12 | 5.54 | 6.36 | 6.08 | – | – | – | – | – | –
5.21 | < 4.48 | 5.06 | < 4.48 | 5.34 | – | – | Cc1c(O)cccc1C(=O)N[C@@H](CSc1ccccc1)[C@H](O)CN1C[C@H]2CCCC[C@H]2C[C@H]1C(=O)NC(C)(C)C [Nelfinavir] | 4.99 | 4.87 | – | < 4.48 | 4.57 | 4.9 | 4.98 | – | – | – | – | – | 5.74
5.16 | 5.37 | 5.57 | 5.68 | – | – | – | C[C@@H](Oc1cc(-c2cnn(C3CCNCC3)c2)cnc1N)c1c(Cl)ccc(F)c1Cl | 5.61 | 5.23 | – | 5.24 | 5.18 | 5.59 | 5.7 | – | – | – | – | – | –
6.68 | 7.82 | 6.94 | 5.8 | 6.08 | 7.66 | 7.65 | CC[C@@]1(O)C(=O)OCc2c1cc1n(c2=O)Cc2cc3c(CN(C)C)c(O)ccc3nc2-1 [Topotecan] | 6.67 | – | – | 8.08 | – | 7.23 | – | 7.87 | 6.12 | 6.59 | 4.63 | – | –
6.69 | 6.33 | – | 5.31 | 6.68 | – | – | COC(=O)Nc1nc2cc(C(=O)c3ccccc3)ccc2[nH]1 [Mebendazole] | 5.45 | 4.74 | – | < 4.18 | 6.08 | 5.5 | 6.18 | – | – | – | – | – | 6.35
7.18 | 7.42 | 7.8 | 7.47 | 8.4 | 7.74 | 7.15 | COC1=C2C[C@@H](C)C[C@H](OC)[C@H](O)[C@@H](C)/C=C(\C)[C@H](OC(N)=O)[C@@H](OC)/C=C\C=C(/C)C(=O)NC(=CC1=O)C2=O [Geldanamycin] | 8.14 | – | – | 7.7 | – | 8.23 | 8.22 | 7.6 | 8.48 | 8.14 | 8.82 | 8.22 | 8.15
7.78 | 8.37 | 7.83 | 7.05 | 8.99 | 8.41 | 7.86 | C[C@@H](Oc1cc(-n2cnc3ccc(CN4CCN(C)CC4)cc32)sc1C(N)=O)c1ccccc1C(F)(F)F | 7.11 | – | – | 7.52 | – | 7.37 | 7.96 | 8.7 | 5.38 | 8.15 | 7.95 | 7.88 | 5.21
8.01 | 8.24 | 7.81 | 8.12 | 8.63 | 8.64 | 8.07 | CC(=O)O[C@@]12CO[C@@H]1C[C@H](O)[C@@]1(C)C(=O)[C@H](O)C3=C(C)[C@@H](OC(=O)[C@H](O)[C@@H](NC(=O)OC(C)(C)C)c4ccccc4)C[C@@](O)([C@@H](OC(=O)c4ccccc4)[C@H]21)C3(C)C [Docetaxel] | 8.59 | – | – | 8.71 | – | 8.63 | 8.76 | 8.75 | – | 7.77 | 8.33 | 8.77 | 8.4
7.22 | 7.35 | 6.52 | 6.59 | 7.76 | 7.61 | 7.92 | CC(C)Oc1ccc(C(=O)N[C@H](CNC(=O)CN(C)C)Cc2ccc(-c3cn4cccc([C@H](C)O)c4n3)cc2)cc1Cl | 6.29 | – | – | 7.46 | – | 7.29 | 7.17 | 7.33 | 5.18 | 7.7 | 6.37 | 7.2 | 7.68
6.12 | – | 5.2 | 6.55 | – | – | – | Cn1ncc(Cl)c1-c1cc(C(=O)N[C@H](CN)Cc2ccc(F)c(F)c2)oc1Cl | 5.45 | 5.35 | 6.88 | 5.01 | 5.35 | 5.03 | 7.42 | – | – | – | – | – | –

Structure (SMILES) | -log10 GI50 (HCC3153) | -log10 GI50 (HCC1395) | -log10 GI50 (MDAMB134VI) | -log10 GI50 (HCC1569) | -log10 GI50 (HCC202) | -log10 GI50 (MDAMB468) | -log10 GI50 (MDAMB436) | -log10 GI50 (MCF10F) | -log10 GI50 (21MT1) | -log10 GI50 (SUM225CWN) | -log10 GI50 (SUM1315MO2) | -log10 GI50 (21NT) | -log10 GI50 (MCF10A) | -log10 GI50 (SUM149PT) | -log10 GI50 (HBL100) | -log10 GI50 (SUM102PT) | -log10 GI50 (UACC893) | -log10 GI50 (S1) | -log10 GI50 (T4) | -log10 GI50 (ZR7530)
N.N.[Cl][Pt][Cl] [Cisplatin] | 5.12 | 5.91 | 3.73 | 5.11 | 6.06 | 5.27 | 5 | 5.42 | – | – | 5.75 | – | 5.1 | 5.8 | 5.05 | < 3.3 | 3.76 | 5.45 | 5.02 | 5.58
